From patent publication US20210400970A1, “COMPOSITIONS COMPRISING PYRIDINE CARBOXYLATE HERBICIDES AND MICROTUBULE ASSEMBLY INHIBITOR HERBICIDES” (priority 2018, published 2021)

Columns and labels:
Format in all cases: in vivo
Conditions in all cases: 20-22 d
[1] = tested on: Viola tricolor (wild pansy, VIOTR); assay: Greenhouse post-emergence herbicidal effect on wild pansy
Procedure: (§1) Seeds of the desired test plant species were planted in a 90:10% v/v (volume/volume) mixture of PRO-MIX® BX (Premier Tech Horticulture, Quakertown, Pa., USA) and PROFILE® GREENS GRADE™ (Profile Products LLC, Buffalo Grove, Ill., USA) planting mixture, which typically has a pH of 5.2 to 6.2 and an organic matter content of at least 50 percent, in plastic pots with a surface area of 103.2 square centimeters (cm^2). […] The plants were grown for 7-36 days (d) in a greenhouse with an approximate 14-hour (h) photoperiod which was maintained at about 23° C. during the day and 22° C. during the night. Nutrients and water were added on a regular basis and supplemental lighting was provided with overhead metal halide 1000-Watt lamps as necessary. The plants were employed for testing when they reached the second or third true leaf stage.
(§2) Emulsifiable concentrates of each of each pyridine carboxylate herbicide (Compound A or Compound B) were prepared at 100 grams acid equivalent per liter (g ae/L). The emulsifiable concentrates also included a safener, cloquintocet-mexyl, at 120 grams active ingredient per liter (g ai/L). An aliquot of each emulsifiable concentrate was placed in a 25 mL glass vial and diluted with an aqueous mixture of 1.25% (v/v) ACTIROB® B esterified rapeseed oil (Bayer Crop Science, Research Triangle Park, NC, USA) or MSO® Concentrate with LECI-TECH® methylated soybean oil (Loveland Products, Loveland, Colo., USA) to obtain concentrated stock solutions at the highest application rate for each herbicide, based upon a 12 milliliter (mL) application volume at a rate of 187 liters per hectare (L/ha). The concentrated stock solutions were further diluted with an aqueous mixture of 1.25% v/v ACTIROB® B or MSO® Concentrate with LECI-TECH® to obtain stock solutions at reduced application rates for each herbicide. Spray solutions of the herbicide combinations (Compound A or Compound B plus the MAI herbicide) were prepared by adding weighed amounts or aliquots of the MAI herbicide to the stock solutions of Compound A or Compound B to form 12-mL spray solutions in two-way combinations.
(§3) The spray solutions were applied to the plant material with an overhead Mandel track sprayer equipped with 8002E nozzles calibrated to deliver 187 L/ha over an application area of 0.503 square meters (m^2) at a spray height of 18 inches (43 centimeters (cm)) above the average plant canopy. Control plants were sprayed in the same manner with the solvent blank. All pyridine carboxylate herbicide (component a) application rates are given as “g ae/ha” and all MAI herbicide (component b) application rates are given as “g ai/ha.”
(§4) The treated plants and control plants were placed in a greenhouse as described above and watered by sub-irrigation to prevent wash-off of the test compounds. After 20-22 d, the condition of the test plants as compared with that of the control plants was determined visually and scored on a scale of 0 to 100 percent where 0 corresponds to no injury and 100 corresponds to complete kill.

[2] = tested on: Chenopodium album L. (common lambsquarters, CHEAL); assay: Greenhouse post-emergence herbicidal effect on common lambsquarters
Procedure: as §1, §2
(§5) The spray solutions were applied to the plant material with an overhead Mandel track sprayer equipped with 8002E nozzles calibrated to deliver 187 L/ha over an application area of 0.503 square meters (m^2) at a spray height of 18 inches (43 centimeters (cm)) above the average plant canopy. […]
as §4

[3] = tested on: Lolium multiflorum (Italian ryegrass, LOLMU); assay: Greenhouse post-emergence herbicidal effect on Italian ryegrass
Procedure: as §1, §2, §3, §4

[4] = tested on: Echinochloa crus-galli (barnyard grass, ECHCG); assay: Greenhouse post-emergence herbicidal effect on barnyard grass
Procedure: as §1, §2, §3, §4

[5] = tested on: Digitaria sanguinalis (large crabgrass, DIGSA); assay: Greenhouse post-emergence herbicidal effect on large crabgrass
Procedure: as §1, §2, §3, §4

[6] = tested on: Abutilon theophrasti (velvetleaf, ABUTH); assay: Greenhouse post-emergence herbicidal effect on velvetleaf
Procedure: as §1, §2, §5, §4

[7] = tested on: Polygonum convolvulus (wild buckwheat, POLCO); assay: Greenhouse post-emergence herbicidal effect on wild buckwheat
Procedure: as §1, §2, §5, §4

[8] = tested on: Cirsium arvense (Canada thistle, CIRAR); assay: Greenhouse post-emergence herbicidal effect on Canada thistle
Procedure: as §1, §2, §3, §4

[9] = tested on: Brassica napus (spring rape, BRSNN); assay: Greenhouse post-emergence herbicidal effect on spring rape
Procedure: as §1, §2, §3, §4

[10] = tested on: Setaria faberi (giant foxtail, SETFA); assay: Greenhouse post-emergence herbicidal effect on giant foxtail
Procedure: as §1, §2, §3, §4

[11] = tested on: Rumex obtusifolius (broad-leaf dock, RUMOB); assay: Greenhouse post-emergence herbicidal effect on broad-leaf dock
Procedure: as §1, §2, §3, §4

[12] = tested on: Glycine max (soybean, GLXMA); assay: Greenhouse post-emergence herbicidal effect on volunteer soybean
Procedure: as §1, §2, §3, §4

[13] = tested on: Ipomoea hederacea (ivyleaf morningglory, IPOHE); assay: Greenhouse post-emergence herbicidal effect on ivyleaf morningglory
Procedure: as §1, §2, §3, §4

[14] = tested on: Kochia scoparia (kochia, KCHSC); assay: Greenhouse post-emergence herbicidal effect on kochia
Procedure: as §1, §2, §3, §4

[15] = MAI herbicide alone, 280 g ai/ha
[16] = MAI herbicide alone, 560 g ai/ha

N#CCOC(=O)c1nc(-c2ccc3cc[nH]c3c2F)c(F)c(N)c1Cl [Compound A, cyanomethyl 4-amino-3-chloro-5-fluoro-6-(7-fluoro-1H-indol-6-yl)pyridine-2-carboxylate]
Obs (% visual injury) ([1]; Compound A alone, 7.5 g ae/ha): 10%
Obs (% visual injury) ([1]; Compound A alone, 10 g ae/ha): 18%
Obs (% visual injury) ([2]; Compound A alone, 7.5 g ae/ha): 97%
Obs (% visual injury) ([2]; Compound A alone, 10 g ae/ha): 93%
Obs (% visual injury) ([3]; Compound A alone, 7.5 g ae/ha): 0%
Obs (% visual injury) ([3]; Compound A alone, 10 g ae/ha): 0%
Obs (% visual injury) ([4]; Compound A alone, 7.5 g ae/ha): 73%
Obs (% visual injury) ([4]; Compound A alone, 10 g ae/ha): 78%
Obs (% visual injury) ([5]; Compound A alone, 7.5 g ae/ha): 45%
Obs (% visual injury) ([5]; Compound A alone, 10 g ae/ha): 25%
Obs (% visual injury) ([6]; Compound A alone, 7.5 g ae/ha): 68%
Obs (% visual injury) ([6]; Compound A alone, 10 g ae/ha): 78%
Obs (% visual injury) ([7]; Compound A alone, 7.5 g ae/ha): 75%
Obs (% visual injury) ([7]; Compound A alone, 10 g ae/ha): 70%
Obs (% visual injury) ([8]; Compound A alone, 7.5 g ae/ha): 23%
Obs (% visual injury) ([8]; Compound A alone, 10 g ae/ha): 20%
Obs (% visual injury) ([9]; Compound A alone, 7.5 g ae/ha): 73%
Obs (% visual injury) ([9]; Compound A alone, 10 g ae/ha): 83%
Obs (% visual injury) ([10]; Compound A alone, 7.5 g ae/ha): 70%
Obs (% visual injury) ([10]; Compound A alone, 10 g ae/ha): 70%
Obs (% visual injury) ([11]; Compound A alone, 7.5 g ae/ha): 8%
Obs (% visual injury) ([11]; Compound A alone, 10 g ae/ha): 10%
Obs (% visual injury) ([12]; Compound A alone, 7.5 g ae/ha): 93%
Obs (% visual injury) ([12]; Compound A alone, 10 g ae/ha): 95%
Obs (% visual injury) ([13]; Compound A alone, 7.5 g ae/ha): 3%
Obs (% visual injury) ([13]; Compound A alone, 10 g ae/ha): 8%
Obs (% visual injury) ([14]; Compound A alone, 7.5 g ae/ha): 60%
Obs (% visual injury) ([14]; Compound A alone, 10 g ae/ha): 65%

CSC(=O)c1c(C(F)F)nc(C(F)(F)F)c(C(=O)SC)c1CC(C)C [Dithiopyr]
Obs (% visual injury) [1, 15]: 0%
Obs (% visual injury) [2, 15]: 10%
Obs (% visual injury) [3, 15]: 0%
Obs (% visual injury) [4, 15]: 0%
Obs (% visual injury) [5, 15]: 33%
Obs (% visual injury) [6, 15]: 40%
Obs (% visual injury) [7, 15]: 0%
Obs (% visual injury) [8, 15]: 0%
Obs (% visual injury) [9, 15]: 58%
Obs (% visual injury) [10, 15]: 0%
Obs (% visual injury) [11, 15]: 5%
Obs (% visual injury) [12, 15]: 13%
Obs (% visual injury) [13, 15]: 30%
Obs (% visual injury) [14, 15]: 15%

CCC(CC)Nc1c([N+](=O)[O-])cc(C)c(C)c1[N+](=O)[O-] [Pendimethalin]
Obs (% visual injury) [1, 16]: 0%
Obs (% visual injury) [3, 16]: 0%
Obs (% visual injury) [4, 16]: 0%
Obs (% visual injury) [5, 16]: 15%
Obs (% visual injury) [7, 16]: 0%
Obs (% visual injury) [8, 16]: 5%
Obs (% visual injury) [9, 16]: 15%
Obs (% visual injury) [10, 16]: 0%
Obs (% visual injury) [11, 16]: 0%
Obs (% visual injury) [12, 16]: 23%
Obs (% visual injury) [13, 16]: 3%
Obs (% visual injury) [14, 16]: 18%

C#CC(C)(C)NC(=O)c1cc(Cl)cc(Cl)c1 [Propyzamide]
Obs (% visual injury) [1, 15]: 0%
Obs (% visual injury) [2, 15]: 0%
Obs (% visual injury) [3, 15]: 0%
Obs (% visual injury) [4, 15]: 0%
Obs (% visual injury) [5, 15]: 0%
Obs (% visual injury) [6, 15]: 5%
Obs (% visual injury) [8, 15]: 0%
Obs (% visual injury) [9, 15]: 0%
Obs (% visual injury) [10, 15]: 0%
Obs (% visual injury) [11, 15]: 0%
Obs (% visual injury) [12, 15]: 23%
Obs (% visual injury) [13, 15]: 3%
Obs (% visual injury) [14, 15]: 18%
